# Source: PMC6481325, “Novel N,N-dialkyl cyanocinnamic acids as monocarboxylate transporter 1 and 4 inhibitors” (Oncotarget, 2019)
# Entries after “also recorded” stand apart in the source; their conditions may differ.
# Key:
# WiDr cells = test: SRB cell proliferation inhibition assay, WiDr; format: cell-based; conditions: Homo sapiens, 72 hours, average ± sem
# Experimental: MDA-MB-231 cells (ATCC, 2015) were grown in DMEM supplemented with 10% FBS and penicillin-streptomycin (50 U/ml, 50 μg/ml, Invitrogen). WiDr cells (ATCC, 2017) were cultured in MEM medium supplemented with 10% FBS (Atlanta Biologicals) and penicillin-streptomycin (50 U/ml, 50 μg/ml). For in vitro experiments, after seeding, cells were incubated at 37°C in 5% CO2 for 18–24 hours before the addition of test compounds.
# Cells (5 × 10^4 cells/mL) were cultured in 48-well plates. Test compounds were dissolved in DMSO (final concentration of DMSO is <0.1%) and were added to culture wells at various concentrations in replicate and incubated for 72 hours. Growth medium was removed and the wells were washed with PBS and dried. SRB (0.5% in 1% acetic acid) was added to the wells and incubated for 30–45 minutes. The wells were washed 3 times with 1% acetic acid and dried. The cellular protein was dissolved in trizma base (10 mM, pH 10.2) and absorbance was recorded at 540 nm. Percent survival was calculated using the formula %Survival=Abstest compound/Abscontrol×100 .
# [1] = tested on: MCT1 expressing WiDr cells; test: Seahorse XFe96 glycolysis stress test (ECAR), WiDr; format: cell-based; conditions: 30 μM
# Experimental: (§1) In the GST, three parameters namely glycolysis, glycolytic capacity and glycolytic reserve were measured.
# (§2) Extracellular acidification rates (ECAR) and oxygen consumption rates (OCR) were recorded in real-time for glycolysis stress test (GST) and mitochondrial stress test (MST), respectively, using Agilent Seahorse XFe96® analyzer.
# [2] = tested on: MCT4 expressing MDA-MB-231 cells; test: Seahorse XFe96 glycolysis stress test (ECAR), MDA-MB-231; format: cell-based; conditions: 30 μM
# Experimental: as §1, §2
# [3] = tested on: MCT1 expressing WiDr cells; test: Seahorse XFe96 mitochondrial stress test (OCR), WiDr; format: cell-based; conditions: 30 μM
# Experimental: as §2
# [4] = tested on: MCT4 expressing MDA-MB-231 cells; test: Seahorse XFe96 mitochondrial stress test (OCR), MDA-MB-231; format: cell-based; conditions: 30 μM
# Experimental: as §2
# [5] = tested on: MDA-MB-231 tumor xenograft; test: Tumor growth inhibition, MDA-MB-231 xenograft model; format: in vivo; conditions: SCID mice
# Experimental: Figure 6 In vivo xenograft studies in WiDr and MDA-MB-231 tumor models (A) WiDr tumor xenograft study of compound 3 and compound 9. Mice (n = 8) were treated with 8 mg/kg of compound 3, intraperitoneally, two times a day. (B) Tumor growth inhibition study with compound 9 in MDA-MB-231 tumor xenograft model (n = 6). Mice were treated with compound 9 (70 mg/kg, ip, bid until day-4; qd from day-5), a combination of 9 and doxorubicin (0.5 mg/kg, ip, five days a week), and doxorubicin. (C) Tumor growth inhibition based on isolated tumor mass. ^*P < 0.05, ^**P < 0.01, ^***P < 0.001, ^****P < 0.0001. Schematic representation of (D) untreated tumor cells and (E) inhibition of MCT1 and MCT4 and decreased glycolysis and mitochondrial OxPhos in compound 9 treated tumor cells. Upward hollowed arrow indicates “increase” in function/amount and downward hollowed arrow indicates “decrease” in function/amount.
# Group-1 was administered with compound 9, group-2 was given a combination of compound 9 and clinical breast cancer drug doxorubicin (AKSci catalog # E518), and group-3 was treated with doxorubicin alone. Group-4 was assigned as a control group and treated with vehicle (10% DMSO in saline). The treatment was continued up to 18 days and on day 20, the mice were euthanized and tumor masses isolated and weighed. […] Due to these reasons, higher dosages of compound 9 were required to produce significant anticancer efficacy in vivo. In all these studies, <20% of body weight loss was observed.
# Tumor cells suspended in 1:1 matrigel-PBS were injected on right flank of female SCID mice (n = 6 mice/group, 10^7 MDA-MB-231 cells) or right flank of female athymic nude mice (n = 8 mice/group, 5 × 10^6 WiDr cells). Tumors were measured using calipers every 2–3 days and tumor volumes were calculated using the formula V = ab^2/2 where ‘a’ is the long diameter of the tumor and ‘b’ is the short diameter of the tumor. Tumor growth inhibition was determined using the formula % inhibition = [(C – T)/C] × 100 where C is average tumor weight of the control group and T is the average tumor weight of the test group.
# [6] = design: method as in ref 32 = [32]; PMID 26005533; doi:10.1021/acsmedchemlett.5b00049; 32 Gurrapu S Jonnalagadda SK Alam MA Nelson GL Sneve MG Drewes LR Mereddy VR Monocarboxylate transporter 1 inhibitors as potential anticancer agents ACS Med Chem Lett 2015 6 558 61 10.1021/acsmedcheml; conditions: in vivo; cited from earlier work
structure (smiles),measurement,setting,value
COc1cc(N(c2ccccc2)c2ccccc2)ccc1/C=C(\C#N)C(=O)O [Phenyl (9)],IC50,WiDr cells,4.2 ± 0.4 µM
same,"glycolytic capacity (GST, ECAR)",[1],decreased; also recorded: significant decrease
same,"glycolytic reserve (GST, ECAR)",[1],completely arrested; also recorded: significant decrease
same,"glycolytic capacity (GST, ECAR)",[2],decreased
same,"glycolytic reserve (GST, ECAR)",[2],completely arrested
same,"ATP production (MST, OCR)",[3],significantly decreased
same,"maximal respiration (MST, OCR)",[3],significantly decreased
same,"proton leak (MST, OCR)",[3],significantly increased proton leak compared to compound 3
same,"spare respiratory capacity (MST, OCR)",[3],significantly decreased
same,"ATP production (MST, OCR)",[4],significantly decreased
same,"maximal respiration (MST, OCR)",[4],significantly decreased
same,"proton leak (MST, OCR)",[4],significantly increased
same,"spare respiratory capacity (MST, OCR)",[4],significantly decreased
same,tumor growth inhibition based on tumor volume,"[5]; 9 70 mg/kg ip bid until day-4, qd from day-5, doxorubicin 0.5 mg/kg ip five days a week, treatment up to 18 days",58%
same,tumor growth inhibition based on isolated tumor weights,"[5]; same regimens, tumors isolated on day 20",56%
same,elimination from plasma,[6],most of the compound was eliminated in less than one hour
same,time of peak plasma concentration,[6],15 min
